For test [1], the system named is WSU-DLCL2. The test is described as follows: Anti-proliferation assay (CellTiter-Glo), WSU-DLCL2. The test is classed as cell-based. The settings on record: WSU-DLCL2, 96 hour treatment. The protocol:
(§1) Commercially available 6 B cell lymphoma cancer cell lines DOHH-2 (DSMZ, #ACC 47), NALM-6 (DSMZ, #ACC 58), Ramos (ECACC, #85030802), SU-DHL-6 (ATCC, #CRL-2959), WSU-DLCL2 (DSMZ, #ACC 575) and WSU-NHL (DSMZ, #ACC 58) were used. SG2057 was used as the drug, free toxin. Each of the cancer cell lines was seeded in a 96-well plate at 2000 to 10000 per well for the 96 hour treatment group, incubated for 2 hours, and then treated with drug and ADC at a concentration of from 0.00025 to 100 nM (5-fold times serial dilutions). After 96 hours, the number of living cells was quantified using CellTiter-Glo Luminescent cell viability assay (Promega-G7573). Inhibition rate (IR) of the drug and ADC were determined by the following formula: IR (%)=(1−(RLU compound−RLU blank)/(RLU control−RLU blank))*100%. The inhibitions of different dose of samples were calculated in Excel file, and then were used to plot inhibition curve and evaluate related parameters, such as Bottom (%), Top (%) and Relative IC50. The IC50 for each experiment and treatment was calculated (See table below).

The test system of test [2] is Ramos. The test is described as follows: Anti-proliferation assay (CellTiter-Glo), Ramos. The test is classed as cell-based, human. Conditions: 96 hour treatment. The method, then:
as §1

The subject of test [3] is NALM6. Nature of the test: Anti-proliferation assay (CellTiter-Glo), NALM6. Conditions: NALM6, 96 hour treatment. The class given is cell-based, human. The protocol: as §1
Test [4] deals with SU-DHL-6. Nature of the test: Anti-proliferation assay (CellTiter-Glo), SU-DHL-6. The class given is cell-based, human. Conditions: SU-DHL-6, 96 hour treatment. The protocol: as §1
Test [5] relates to WSU-NHL. Nature of the test: Anti-proliferation assay (CellTiter-Glo), WSU-NHL. The test is classed as cell-based. Conditions: 96 hour treatment. The method, then: as §1
The test system of test [6] is DOHH2. The test is described as follows: Anti-proliferation assay (CellTiter-Glo), DOHH2. The settings on record: DOHH2, 96 hour treatment. The test is classed as cell-based. The method, then: as §1
Test [7] concerns Ramos Burkitt's lymphoma cells. Nature of the test: Ramos non-Hodgkin lymphoma xenograft model. Conditions: Ramos s.c. xenograft, i.v. treatment.
Description: Anti-tumor activity of anti-CD19 (9G8) Antibody Drug Conjugate was evaluated in immunodeficient CB-17 scid mice subcutaneously engrafted with Ramos Burkitt's lymphoma cells.
CB17-SCID mice (Charles River), aged 7 weeks, were implanted subcutaneously (s.c.) in the right flank with 5×10^6 Ramos cells (obtained from ATCC). Tumor volumes (calculated using the formula TV=(0.5×[length×width^2]) were measured by digital caliper 3 times a week and mice were recruited for treatment when tumor volumes reached 200-250 mm^3. Mice were assigned to different groups (see table below) in order to obtain homogeneous mean tumor volumes between cohorts (n=7-8 mice per group. Mean tumor volume: hIgG1 control 1 mg/kg, 1 inj.: 243 mm^3±26; anti-CD19 CaaX 1 mg/kg, 1 inj.: 233 mm^3±18; hIgG1 ADC 1 mg/kg, 1 inj.: 224 mm^3±20; anti CD19 ADC 0.33 mg/kg, 1 inj.: 242 mm^3±28; anti CD19 ADC 0.66 mg/kg, 1 inj.: 234 mm^3±23; anti CD19 ADC 1 mg/kg, 1 inj.: 234 mm^3±31; anti CD19 ADC 0.33 mg/kg 1 inj./week during 3 weeks: 251 mm^3±25; rituximab 6 mg/kg, 1 inj.: 242 mm^3±31). Single dose or multiple dose (only for cohort anti-CD19 ADC 0.33 mg/kg 1×/week, 3 weeks) treatments were injected i.v. in the tail vein. Mice were then monitored for body weight 3 times a week and for tumor growth 3 times a week until the endpoint of the experiment (tumor volume=1500 mm^3).
The test system of test [8] is cynomolgus CD19. Nature of the test: FACS binding to CHO cell line transfected with cynomolgus CD19. Also noted: species or system cynomolgus monkey. Conditions: transfected CHO cynoCD19 cells, 10 to 0.01 μg/mL. The protocol: The ability of the anti-CD19 antibodies to bind human and/or cynomolgus monkey CD19 was evaluated.
In particular, the human IgG1 5F5, 7F11, 9G8, F6, 7F1, and 10D8 anti-CD19 antibodies were evaluated for their abilities to bind a CHO cell line transfected with cynomolgus CD19 and a negative control cell line (CHO). All incubations were prepared in FACS buffer (PBS, BSA 2%) at 4° C. Fc receptors on B cells were blocked with 10% mouse serum. Four doses of hIgG1 were tested: 10, 1, 0.1 and 0.01 μg/mL.

The subject of test [9] is human B lymphocyte cell lines: Raji, Ramos, Nalm6, Su-DHL6, Su-DHL4, and Mec2. The test is described as follows: FACS binding to human B lymphocyte cell lines. The settings on record: comparison of cell lines. The method, then: The ability of various anti-CD19 antibodies of the disclosure to bind various human B lymphocyte cell lines was evaluated. In particular, the human IgG1 5F5, 7F11, 9G8, F6, 7F1, and 10D8 anti-CD19 antibodies were evaluated for their abilities to bind (i) six human B lymphocyte cell lines: Raji, Ramos, Nalm6, Su-DHL6, Su-DHL4, and Mec2, (ii) a CD19 silenced B cell line: Raji siRNA; and a negative cell line (Jurkat). All incubations were prepared in FACS buffer (PBS, BSA 2%) at 4° C. Fc receptors on B cells were blocked with 10% mouse serum. Four doses of hIgG1 were tested: 10, 1, 0.1 and 0.01 μg/mL. Cell surface bound hIgG1 were detected with a mouse anti-human IgG Fc-PE mAb.

Residue numbers refer to the chain shown, from its start.

Consider `C=C1C[C@H]2C=Nc3cc(OCCCCCOc4cc5c(cc4OC)C(=O)N4CC(=C)C[C@H]4C=N5)c(OC)cc3C(=O)N2C1` [Free dPBD (SG2057), SG2057], for which the IC50 in test [1] stood at 4 pM; in [2], 150 pM; in test [3], 3.5 pM; in test [4] it was 50 pM; in test [5], 13 pM; in test [6] it was 5.4 pM.

For rituximab, the “mice reaching the tumor size endpoint (tumor volume=1500 mm^3)” value in test [7] is “four of seven mice reached the endpoint”. The “survival to day 70” value in [7] (rituximab 6 mg/kg single) is on record as “three survived to day 70”.

B1: 7F1: anti-CD19 antibody, VH SEQ ID NO: 16, VL SEQ ID NO: 18 (antibody, V domains shown)
VH: EVQLVQSGAEVKKPGESLKISCKGSGYSFTSYWIGWVRQMPGKGLEWMGIIYPGDSDTRYSPSFQGQVTISADKSISTAYLQWSSLKASDTAMYYCARGDYWTGFAYWGQGTLVTVSS
VL: QSVLTQPPSVSAAPGQKVTISCSGSSSNIGNNYVSWYQQLPGTAPKLLIYDNNKRPSGIPDRFSGSKSGTSATLGITGLQTGDEADYYCGTWDLGWNSVFGGGTKLTVL
As for B1, the “cross-reactivity with cynomolgus CD19” value in [8] was “did not bind”. Moreover, in [9], the “binding profile Nalm6 versus Raji cells” value is “bind better to Nalm6 than to Raji cells”.

B2: 10D8: anti-CD19 antibody, VH SEQ ID NO: 20, VL SEQ ID NO: 22 (antibody, V domains shown)
VH: QVQLVQSGAEVKKPGSSVKVSCKASGGTFSSYAISWVRQAPGQGLEWMGGIIPIFGTANYAQKFQGRVTITADESTSTAYMELSSLRSEDTAVYYCARDRGYDYVWGSYRYGAFDIWGQGTLVTVSS
VL: QSALTQPASVSGSPGQSITISCTGTSSDVGGYNYVSWYQQHPGKAPKLMIYEVSNRPSGVSNRFSGSKSGNTASLTISGLQAEDEADYYCSSYDVWVPHMVFGGGTKLTVL
As for B2, in [8], the “cross-reactivity with cynomolgus CD19” value is “did not bind”. Further, the “binding profile Nalm6 versus Raji cells” value in test [9] is given as “bind better to Nalm6 than to Raji cells”.

B3: F6: anti-CD19 antibody, VH SEQ ID NO: 12, VL SEQ ID NO: 14 (antibody, V domains shown)
VH: EVQLVQSGAEVKKPGESLKISCKGSGYSFTSYWIGWVRQMPGKGLEWMGIIYPGDSDTRYSPSFQGQVTISADKSISTAYLQWSSLKASDTAMYYCARVWYYDFWSGADAFDIWGQGTLVTVSS
VL: EIVMTQSPATLSVSPGERATLSCRASQSVSSNLAWYQQKPGQAPRLLIYGASTRATGIPARFSGSGSGTEFTLTISSLQSEDFAVYYCQQGSLEAPQTFGQGTKVEIK
As to B3, the “cross-reactivity with cynomolgus CD19” value in [8] was “slightly cross-reactive”.

B4: 9G8: anti-CD19 antibody, VH SEQ ID NO: 6, VL SEQ ID NO: 10 (antibody, V domains shown)
VH: EVQLVQSGAEVKKPGESLKISCKGSGYSFTSYWIGWVRQMPGKGLEWMGIIYPGDSDTRYSPSFQGQVTISADKSISTAYLQWSSLKASDTAMYYCARGVSGIYNLHGFDIWGQGTLVTVSS
VL: DIQMTQSPSSLSASVGDRVTITCRASQSISSYLNWYQQKPGKAPKLLIYAASSLQSGVPSRFSGSGSGTDFTLTISSLQPEDFATYYCQQGRFGSPFTFGQGTKVEIK
Regarding B4, the “cross-reactivity with cynomolgus CD19” value in test [8] is recorded as “clearly cross-reactive”.

B5: 5F5: anti-CD19 antibody, VH SEQ ID NO: 2, VL SEQ ID NO: 4 (antibody, V domains shown)
VH: B4 VH with V100I
VL: B4 VL with G91A, R92S, F93L, G94D, F97L
Take B5: the “cross-reactivity with cynomolgus CD19” value in test [8] is reported as “slightly cross-reactive”.

B6: 7F11: anti-CD19 antibody, VH SEQ ID NO: 6, VL SEQ ID NO: 8 (antibody, V domains shown)
VH: B4 VH
VL: B4 VL with R92M, F93W, G94D, S95N
On to B6, for which, in [8], the “cross-reactivity with cynomolgus CD19” value is listed as “slightly cross-reactive”.

Source of the values: patent US11827703B2, “Compositions and methods related to anti-CD19 antibody drug conjugates” (LegoChem Biosciences, Inc., priority 2018, dated 2023).
